Assay results from patent US7160897B2, “Therapeutic compounds” (SmithKline Beecham Corporation, priority 2000, dated 2007).

System: HSV-1
Test: HSV-1 replication in Vero 76 cells, viral DNA hybridization capture assay
Format: cell-based, herpes simplex virus 1
Conditions: Human alphaherpesvirus 1; HSV-1 infected Vero 76 cells, MOI=0.001, 40–48 hours incubation, HSV DNA detected by hybridization/chemiluminescence
Description: Vero 76 cells were maintained in MEM with Earle's salts, L-glutamine, 8% FBS (Hyclone, A-1111-L) and 100 units/mL Penicillin-100 μg/mL Streptomycin. For assay conditions, FBS was reduced to 2%. Cells are seeded into 96-well tissue culture plates at a density of 5×10^4 cells/well after being incubated for 45 min at 37° C. in the presence of HSV-1 or HSV-2 (MOI=0.001). Test compounds are added to the wells and the plates are incubated at 37° C. for 40–48 hours. Cell lysates are prepared as follows: media was removed and replaced with 150 μL/well 0.2 N NaOH with 1% Igepal CA 630 or NP-40. Plates were incubated up to 14 days at room temperature in a humidified chamber to prevent evaporation.
For the detection probe, a gel-purified, digoxigenin-labeled, 710-bp PCR fragment of the HSV UL-15 sequence was utilized. PCR conditions included 0.5 μM primers, 180 μM dTTP, 20 μM dUTP-digoxigenin (Boehringer Mannheim 1558706), 200 μM each of dATP, dCTP, and dGTP, 1×PCR Buffer II (Perkin Elmer), 2.5 mM MgCl2, 0.025 units/μL of AmpliTaq Gold polymerase (Perkin Elmer), and 5 ng of gel-purified HSV DNA per 100 μL. Extension conditions were 10 min at 95° C., followed by 30 cycles of 95° C. for 1 min, 55° C. for 30 sec, and 72° C. for 2 min. The amplification was completed with a 10-min incubation at 72° C. Primers were selected to amplify a 728 bp probe spanning a section of the HSV1 UL15 open reading frame (nucleotides 249–977). Single-stranded transcripts were purified with Promega M13 Wizard kits. The final product was mixed 1:1 with a mixture of 6 M GuSCN, 100 mM EDTA and 200 μg/mL herring sperm DNA and stored at 4° C.
The capture DNA plasmid (HSV UL13 region in pUC) was linearized by cutting with Xba I, denatured for 15 min at 95° C. and diluted immediately into Reacti-Bind DNA Coating Solution (Pierce, 17250, diluted 1:1 with TE buffer, pH 8) at 1 ng/μL 75 μL/well were added to Corning (#3922 or 9690) white 96-well plates and incubated at room temperature for at least 4 hrs before washing twice with 300 μL/well 0.2×SSC/0.05% Tween-20 (SSC/T buffer). The plates were then incubated overnight at room temperature with 150 μL/well 0.2 N NaOH, 1% IGEPAL and 10 μg/mL herring sperm DNA.
Twenty-seven (27) μL of cell lysate was combined with 45 μL of hybridization solution (final concentration: 3M GuSCN, 50 mM EDTA, 100 μg/ml salmon sperm DNA, 5× Denhardt's solution, 0.25×APE, and 5 ng of the digoxigenin-labeled detection probe). APE is 1.5 M NH4-acetate, 0.15 M ammonium phosphate monobasic, and 5 mM EDTA adjusted to pH 6.0. Mineral oil (50 μL) was added to prevent evaporation. The hybridization plates were incubated at 95° C. for 10 minutes to denature the DNA, then incubated at 42° C. overnight The wells were washed 6× with 300 μL/well SSC/T buffer then incubated with 75 μL/well anti-digoxigenin-HRP-conjugated antibody (Boehringer Mannheim 1207733, 1:5000 in TE) for 30 min at room temperature. The wells were washed 6× with 300 μL/well with PBS/0.05% Tween-20 before 75 μL/well SuperSignal LBA substrate (Pierce) was added. The plates were incubated at room temperature for 30 minutes and chemiluminescence was measured in a Wallac Victor reader.
The following results were obtained for HSV-1.

IC50	Structure (SMILES)
700 nM	COc1ccc(-c2nn3c(NC4CCCC4)cccc3c2-c2ccnc(Nc3cccc(CO)c3)n2)cc1 [Example 11, [3-({4-[7-(Cyclopentylamino)-2-(4-methoxyphenyl)pyrazolo[1,5-α]pyridin-3-yl]-2-pyrimidinyl}amino)phenyl]methanol]
500 nM	Fc1ccc(-c2nn3c(NC4CCCC4)cccc3c2-c2ccnc(Nc3ccccc3)n2)cc1 [Example 1, 3-(2-Anilino-4-pyrimidinyl)-N-cyclopentyl-2-(4-fluorophenyl)pyrazolo[1,5-α]pyridin-7-amine]
600 nM	Fc1ccc(Nc2nccc(-c3c(-c4ccc(F)cc4)nn4c(NC5CCCC5)cccc34)n2)cc1 [Example 4, N-Cyclopentyl-3-[2-(4-fluoroanilino)-4-pyrimidinyl]-2-(4-fluorophenyl)pyrazolo[1,5-α]pyridin-7-amine]
700 nM	COc1ccc(-c2nn3c(NC4CCCC4)cccc3c2-c2ccnc(Nc3cccc(N)c3)n2)cc1 [Example 12, N^1-{4-[7-(Cyclopentylamino)-2-(4-methoxyphenyl)pyrazolo[1,5-α]pyridin-3-yl]-2-pyrimidinyl}-1,3-benzenediamine]
3300 nM	Fc1ccc(-c2nn3ccc(NC4CCCC4)cc3c2-c2ccnc(Nc3ccccc3)n2)cc1 [Example 7, N-[3-(2-Anilino-4-pyrimidinyl)-2-(4-fluorophenyl)pyrazolo[1,5-α]pyridin-5-yl]-N-cyclopentylamine]
1000 nM	COc1ccc(-c2nn3c(NC4CCCC4)cccc3c2-c2ccnc(Nc3cccc([N+](=O)[O-])c3)n2)cc1 [Example 10, N-Cyclopentyl-2-(4-methoxyphenyl)-3-[2-(3-nitroanilino)-4-pyrimidinyl]pyrazolo[1,5-α]pyridin-7-amine]
2800 nM	COc1ccc(-c2nn3c(NC4CCCC4)cccc3c2-c2ccnc(Nc3cccc(C(=O)c4ccccc4)c3)n2)cc1 [Example 5, [3-({4-[7-(Cyclopentylamino)-2-(4-methoxyphenyl)pyrazolo[1,5-α]pyridin-3-yl]-2-pyrimidinyl}amino)phenyl](phenyl)methanone]
160 nM	Fc1ccc(-c2nn3c(NC4CCCC4)cc(Cl)cc3c2-c2ccnc(Nc3ccccc3)n2)cc1 [Example 8, 3-(2-Anilino-4-pyrimidinyl)-5-chloro-N-cyclopentyl-2-(4-fluorophenyl)pyrazolo[1,5-α]pyridin-7-amine]
2000 nM	CCSc1cc(Cl)cc2c(-c3ccnc(Nc4ccccc4)n3)c(-c3ccc(F)cc3)nn12 [Example 9, N-{4-[5-Chloro-7-(ethylsulfanyl)-2-(4-fluorophenyl)pyrazolo[1,5-α]pyridin-3-yl]-2-pyrimidinyl}-N-phenylamine]
1250 nM	COc1ccc(Nc2nccc(-c3c(-c4ccc(F)cc4)nn4c(NC5CCCC5)cccc34)n2)cc1 [Example 3, N-Cyclopentyl-2-(4-fluorophenyl)-3-[2-(4-methoxyanilino)-4-pyrimidinyl]pyrazolo[1,5-α]pyridin-7-amine]
14000 nM	Fc1ccc(-c2nn3ccc(Cl)cc3c2-c2ccnc(Nc3ccccc3)n2)cc1 [Example 6, 4-[5-Chloro-2-(4-fluorophenyl)pyrazolo[1,5-α]pyridin-3-yl]-N-phenyl-2-pyrimidinamine]
400 nM	COc1cc(Nc2nccc(-c3c(-c4ccc(F)cc4)nn4c(NC5CCCC5)cccc34)n2)cc(OC)c1OC [Example 2, N-Cyclopentyl-2-(4-fluorophenyl)-3-[2-(3,4,5-trimethoxyanilino)-4-pyrimidinyl]pyrazolo[1,5-α]pyridin-7-amine]
800 nM	COc1ccc(-c2nn3c(NC4CCCC4)cccc3c2-c2ccnc(Nc3cccc(N=[N+]=[N-])c3)n2)cc1 [Example 13, 3-[2-(3-Azidoanilino)-4-pyrimidinyl]-N-cyclopentyl-2-(4-methoxyphenyl)pyrazolo[1,5-α]pyridin-7-amine]
